Data on 4 molecules can be found in US20260325506A1, “METHODS OF TREATING POST-TRAUMATIC STRESS DISORDER AND ALCOHOL USE DISORDER” (FLORIDA ATLANTIC UNIVERSITY RESEARCH CORPORATION, priority 2023, published 2026).

Molecules are shown by their SMILES. Entries after “also recorded” stand apart in the source; their conditions may differ. Some results are limits rather than exact numbers.

Assay [1] concerns SPS-induced allodynia and anxiety-like behaviors. To be noted: less selective NOP receptor antagonist than SB; cited from earlier work.
In assay [2] the test system is SPS induced anxiety-like behaviors in Sprague Dawley (SD) rats. Description: Elevated Plus Maze (EPM), SPS induced anxiety-like behaviors. Type of assay: in vivo. To be noted: for Anxiety index (FIG. 3B): female SD rats (n=6, not yet fully powered). On the procedure:
(§1) SPS procedure: 2 h of complete restraint in disposable plastic holders, followed by grouped (2-3 rats) forced swim for 20 min in a cylindrical tank (46 cm tall×20 cm in diameter) filled with 22-25° C. water to a depth of 30 cm. After 15 min recovery and drying period, rats are exposed to diethyl ether until loss of consciousness and left undisturbed (except for drug or vehicle injection) and alone for 7 days, after which they are pair housed. All rats are housed with soft bedding, observed for signs of pain or discomfort: weight loss, lack of grooming, or porphyrin staining; any such rats is excluded from study.
Elevated Plus Maze (EPM): Rats will be tested for anxiety-like behaviors. The percentage of open arm entries (number of entries into the open arms divided by total number of entries in both arms), time spent in the open arms, total distance traveled, and total time spent immobile are noted. The anxiety index (AI) is calculated where total exploration on the maze represents the total number of arm entries: Anxiety Index=1−[[(time spent in open arms/total time on the maze (300 sec))+(number of entries into open arms/total number of arm entries)]/2]. Each animal is tested at 9 and 30 days post-SPS.
(§2) Drug Treatment: PPL-138 (0.3 and 1 mg/kg) is dissolved in the same vehicle as 10 mg/kg SB (3% DMSO+97% of 0.5% hydroxypropyl cellulose (HPC)). Drug treatment (i.p.) begins immediately after exposure to ether and continues every other day thereafter. Ctr and SPS rats receive vehicle (3% DMSO+97% 0.5% HPC) injections.
Anxiety index reflects a combination of three anxiety-like behaviors.
(§3) Control (Ctr) and SPS-treated male and female SD rats are treated 3 times each week with Veh, PPL-138 (0.3 and 1 mg/kg, s.c.) or the NOP antagonist SB612111 (SB; 3 mg/kg, i.p.). […] SB alleviates TBI- and 6-OHDA Parkinson disease model-induced locomotor deficits and brain hypoxia.

The test system of assay [3] is SPS-induced allodynia in Sprague Dawley (SD) rats. The assay is described as follows: tactile sensitivity (allodynia), paw withdrawal threshold (PWT) after SPS. Type of assay: in vivo. To be noted: for allodynia (PWT, FIG. 4A): male SPS rats; for paw withdrawal threshold, allodynia (FIG. 2A): male SD rats, 1 mg/kg i.p., days 14, 21 and 28, SPS vs SPS+PPL-138, p<0.05 (Tukey). How it is done:
as §1, §2
(§4) Degree of enhanced nociceptive sensitivity by SPS to tactile and thermal stimuli were reduced in this cohort likely a result of group housing during the first 7 days instead of our usual solo housing (FIG. 2). […] PPL-138 reduced serum N/OFQ levels compared to SPS (p<0.05 by Tukey's post-hoc test).
as §3
(§5) Sensitivity to tactile and thermal sensitivity in males and females was determined by paw withdrawal threshold to increasing pressure (PWT; tactile) and paw withdrawal latency to a thermal stimulus (PWL) (FIG. 4). There was a significant interaction between time and treatment for sensitivity to both tactile (A) and thermal (C) stimuli for males ([F (28, 228)=1.708, p=0.0182] and [F (28, 228)=4.276, p<0.0001]), respectively, as well as for thermal sensitivity (D) in females [F (28, 164)=2.286, p=0.0007]. […] Allodynia was reversed by 0.3 mg/kg PPL-138 and by SB in males, and by 1 mg/kg PPL-138 in females (#p<0.05). Thermal hyperalgesia was reversed by both doses of PPL-138 and SB in males, and by 1 mg/kg PPL-138 and SB in females.

In assay [4] the test system is SPS-induced thermal hyperalgesia in Sprague Dawley (SD) rats. Description: thermal sensitivity (hyperalgesia), paw withdrawal latency (PWL) after SPS. The class given is in vivo. To be noted: for thermal hyperalgesia (PWL, FIG. 4D): female SPS rats; for thermal hyperalgesia (PWL, FIG. 4D) / thermal hyperalgesia (PWL, FIG. 4C): 28 days; for thermal hyperalgesia (PWL, FIG. 4C): male SPS rats. On the procedure:
as §1, §2, §4, §3, §5

Assay [5] has as its system TBI-induced locomotor deficits and brain hypoxia. The following applies: cited from earlier work.
In assay [6] the test system is 6-OHDA Parkinson disease model-induced locomotor deficits and brain hypoxia. To be noted: cited from earlier work.
For assay [7], the system named is neuropathy. The following applies: models of neuropathy; cited from earlier work.
In assay [8] the test system is irritable bowel syndrome (IBS). To be noted: models of irritable bowel syndrome (IBS); cited from earlier work.
Assay [9] has as its system kappa receptor. The following applies: PPL-138 like buprenorphine; cited from earlier work.
Assay [10] has as its system delta receptor. The following applies: PPL-138 like buprenorphine; cited from earlier work.
The subject of assay [11] is N/OFQ. Description: serum N/OFQ levels after SPS. The class given is in vivo, Sprague Dawley (SD) rats. To be noted: end of pilot study, compared to SPS, p<0.05 (Tukey); ANOVA F (2, 12)=4.147, p=0.0421. On the procedure:
as §1, §2, §4

In assay [12] the target is mu opioid receptor. The following applies: all four members of the opioid receptor family; cited from earlier work.
The target in assay [13] is kappa opioid receptor. To be noted: all four members of the opioid receptor family; cited from earlier work.
The target of assay [14] is delta opioid receptor. The following applies: all four members of the opioid receptor family; cited from earlier work.
Assay [15] deals with NOP receptor. To be noted: all four members of the opioid receptor family; cited from earlier work.
Assay [16] concerns mu opioid receptor. To be noted: less than buprenorphine; cited from earlier work.
The test system of assay [17] is NOP receptor. The following applies: higher than buprenorphine; cited from earlier work.

Turning to `CCc1ccc(OCc2ccccc2C(=O)Nc2ccc3nc(C)cc(N)c3c2)cc1` [JTC-801], in assay [1], the SPS-induced allodynia entry is “reversed” and the SPS-induced anxiety-like behaviors entry is given as “reversed”.

On to `Cc1cccc2c1CC[C@H](CN1CCC(c3c(Cl)cccc3Cl)CC1)C[C@@H]2O` [SB612111], for which the “Anxiety index (FIG. 3B)” value in assay [2] (SB 3 mg/kg i.p., day 9 post-SPS) was “significant effect”. Moreover, the “Anxiety index (FIG. 3A)” value in assay [2] (male SD rats, SB 3 mg/kg i.p., day 30 post-SPS) is on record as “significant effects”. For the same molecule, the “allodynia (PWT, FIG. 4A)” value in assay [3] (SB 3 mg/kg i.p., 28 days, #p<0.05) is “reversed”. For the same molecule, in assay [4] (SB 3 mg/kg i.p.), the “thermal hyperalgesia (PWL, FIG. 4D)” value is reported as “reversed” and the “thermal hyperalgesia (PWL, FIG. 4C)” value is on record as “reversed”. Further, in assay [5], the brain hypoxia entry is “alleviates” and the locomotor deficits entry was “alleviates”. In addition, in [6], the brain hypoxia entry is listed as “alleviates” and the locomotor deficits entry is “alleviates”. Moreover, the antinociception entry in assay [7] is listed as “produces antinociception”. Further, in [8], the antinociception result is reported as “produces antinociception”.

`CO[C@@]12CC[C@@]3(C[C@@H]1[C@](C)(O)C(C)(C)C)[C@H]1Cc4ccc(O)c5c4[C@@]3(CCN1CC1CC1)[C@H]2O5` [buprenorphine, reference compound]: in [9], the “activity at kappa receptor” value is recorded as “antagonist”. Moreover, the “activity at delta receptor” value in [10] is reported as “antagonist”.

In the case of `O=C(CCc1ccccc1)O[C@@]12CCC(=O)[C@@H]3Oc4c(O)ccc5c4[C@@]31CCN(CC1CC1)[C@@H]2C5` [PPL-138, 14β-(3-phenylpropanoyl)-17-cyclopropylmethyl-7,8-dihydronoroxymorphinone], the “Anxiety index (FIG. 3B)” value in assay [2] (PPL-138 1 mg/kg s.c., day 30 post-SPS) is “significant effect”. In assay [2] (female SD rats, overall statement), the “anxiety-like behaviors (FIG. 3B)” value is listed as “reduces”. The distance travelled entry in assay [2] (male SD rats, 1 mg/kg i.p., between groups (Ctr, SPS, SPS+PPL-138)) is on record as “no differences”. Further, the “open arm time (FIG. 1B)” value in [2] (male SD rats, 1 mg/kg i.p., days 9 and 30 post-SPS, treatment F (2,12)=5.066, p<0.05, PPL 138+SPS vs SPS *p<0.05, **p<0.01 (Tukey), 1 mg/kg) is reported as “increased; also recorded: significant effect”. Moreover, the “anxiety index (FIG. 1A)” value in assay [2] (male SD rats, 1 mg/kg i.p., days 9 and 30 post-SPS, treatment F (2,12)=9.912, p<0.005, PPL 138+SPS vs SPS *p<0.05, **p<0.01 (Tukey), 1 mg/kg) was “reduced; also recorded: significant effect”. The “open arm entries (FIG. 1C)” value in assay [2] (male SD rats, 1 mg/kg i.p., days 9 and 30 post-SPS, treatment F (2,12)=11.99, p<0.005, PPL 138+SPS vs SPS *p<0.05, **p<0.01 (Tukey), 1 mg/kg) is “increased; also recorded: significant effect”. Moreover, the “Anxiety index (FIG. 3A)” value is “significant effects” in assay [2] (male SD rats, PPL-138 0.3 mg/kg s.c., day 30 post-SPS); “significant effect” in assay [2] (male SD rats, PPL-138 1 mg/kg s.c., day 9 post-SPS); “significant effects” in assay [2] (male SD rats, PPL-138 1 mg/kg s.c., day 30 post-SPS). The “anxiety-like behaviors (FIG. 3A)” value in assay [2] (male SD rats, overall statement) is “reduces”. Also, the “development of PTSD-induced anxiety-like behaviors” value in assay [2] (males and females, overall conclusion) was “reverses”. Further, the “allodynia (FIG. 4)” value in assay [3] (SD rats, overall statement) is listed as “reduces”. Moreover, in assay [3] (female SPS rats, PPL-138 1 mg/kg s.c., 28 days, #p<0.05), the “allodynia (PWT, FIG. 4B)” value was “reversed”. The “paw withdrawal threshold, allodynia (FIG. 2A)” value was “SPS rats had significantly lower paw withdrawal threshold” in assay [3] (1 mg/kg) and “reversed” in assay [3] (listed as PPL 138, 1 mg/kg). The “allodynia (PWT, FIG. 4A)” value in [3] (PPL-138 0.3 mg/kg s.c., 28 days, #p<0.05) is given as “reversed”. The “development of PTSD-induced nociceptive sensitivity” value in [3] (males and females, overall conclusion (tactile and thermal)) was “reverses”. The “hyperalgesia (FIG. 4)” value in assay [4] (SD rats, overall statement) is reported as “reduces”. Moreover, the “thermal hyperalgesia (PWL, FIG. 4D)” value in assay [4] (PPL-138 1 mg/kg s.c.) is listed as “reversed”. Also, in [4] (male SD rats, 1 mg/kg i.p., treatment F (2, 12)=7.56, p<0.01), the “thermal sensitivity (FIG. 2B)” value was “reversed”. The “thermal hyperalgesia (PWL, FIG. 4C)” value in [4] (PPL-138 0.3 mg/kg s.c. (both doses)) and in assay [4] (PPL-138 1 mg/kg s.c. (both doses)) was “reversed” each time. Moreover, the “serum N/OFQ levels” value in assay [11] is reported as “reduced”. For the same molecule, the Ki in [12], in assay [13], in assay [14] and in assay [15] was below 0.01 µM in each case. Also, the efficacy at mu result in assay [16] is recorded as “very low efficacy”. Moreover, the “partial agonist activity at NOP receptor” value in assay [17] is reported as “partial agonist”. For the same molecule, the “activity at kappa receptor” value in assay [9] is recorded as “antagonist”. The “activity at delta receptor” value in [10] was “antagonist”.
